Entries after “also recorded” stand apart in the source; their conditions may differ.
Tests used:
prostate cancer = details: 5 mg/day for 7 years vs placebo, men over 55 years, PSA less than 3.0 ng/ml; cited from earlier work
breast cancer cells = assay: growth of breast cancer cells in culture; assay type: cell-based; details: certain breast cancer cells in culture
Text: A further promising concept is based on a comparative evaluation between DHT and the compounds of the present invention. […] This effect may readily hold also true for hormone independent cancer.

[1] = tested on: variant of the human prostate cancer cell line LNCaP; details: cited from earlier work
5α-reductase = assay: 5α-reduction of the compound
aromatase = molecular target: T1, aromatase (Homo sapiens, UniProt P11511); assay: aromatization of the compound
T1 sequence (P11511 1-503): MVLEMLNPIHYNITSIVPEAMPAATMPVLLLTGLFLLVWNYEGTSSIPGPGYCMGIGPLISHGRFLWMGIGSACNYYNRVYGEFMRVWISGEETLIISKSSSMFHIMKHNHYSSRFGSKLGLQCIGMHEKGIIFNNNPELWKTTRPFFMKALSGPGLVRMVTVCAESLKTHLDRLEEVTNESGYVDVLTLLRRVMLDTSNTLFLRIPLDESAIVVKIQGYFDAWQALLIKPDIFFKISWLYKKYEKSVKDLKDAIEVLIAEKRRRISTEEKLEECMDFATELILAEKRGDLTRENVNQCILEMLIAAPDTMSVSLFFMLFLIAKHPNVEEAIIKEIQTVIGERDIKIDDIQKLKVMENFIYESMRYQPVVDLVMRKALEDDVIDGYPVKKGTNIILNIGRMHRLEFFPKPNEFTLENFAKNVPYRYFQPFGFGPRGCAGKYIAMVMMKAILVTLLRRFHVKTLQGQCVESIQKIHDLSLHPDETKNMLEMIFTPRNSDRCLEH

skin = assay: topical application of a 4-OHT preparation to the skin over cellulite predilection areas; assay type: in vivo
Text: Not only in theory but also in practice the compounds of the present invention and in particular 4-OHT and its related analogous compounds are the ideal anabolic substances. […] This can be deduced from topical applications to the skin.
The border between the two layers is made up of collagen fibres. Strengthening this border by increasing its collagen content by stimulating the fibroblasts to produce more collagen leads to a marked improvement of the appearance of cellulite.
A topical formulation containing a compound according to the present invention such as 4-OHT or an analogous compound can increase the collagen content of the skin via stimulation of the fibroblasts. […] It is reasonable to assume that 4-OHT has solely anabolic effects. […] Apparently is 4-OHT unable to exert any androgenic effects such as hair growth or pimples.

androgen receptor (AR) = molecular target: T2, androgen receptor (AR) (Homo sapiens, UniProt P10275); assay: binding affinity to the androgen receptor compared with DHT
T2 sequence (P10275 1-920): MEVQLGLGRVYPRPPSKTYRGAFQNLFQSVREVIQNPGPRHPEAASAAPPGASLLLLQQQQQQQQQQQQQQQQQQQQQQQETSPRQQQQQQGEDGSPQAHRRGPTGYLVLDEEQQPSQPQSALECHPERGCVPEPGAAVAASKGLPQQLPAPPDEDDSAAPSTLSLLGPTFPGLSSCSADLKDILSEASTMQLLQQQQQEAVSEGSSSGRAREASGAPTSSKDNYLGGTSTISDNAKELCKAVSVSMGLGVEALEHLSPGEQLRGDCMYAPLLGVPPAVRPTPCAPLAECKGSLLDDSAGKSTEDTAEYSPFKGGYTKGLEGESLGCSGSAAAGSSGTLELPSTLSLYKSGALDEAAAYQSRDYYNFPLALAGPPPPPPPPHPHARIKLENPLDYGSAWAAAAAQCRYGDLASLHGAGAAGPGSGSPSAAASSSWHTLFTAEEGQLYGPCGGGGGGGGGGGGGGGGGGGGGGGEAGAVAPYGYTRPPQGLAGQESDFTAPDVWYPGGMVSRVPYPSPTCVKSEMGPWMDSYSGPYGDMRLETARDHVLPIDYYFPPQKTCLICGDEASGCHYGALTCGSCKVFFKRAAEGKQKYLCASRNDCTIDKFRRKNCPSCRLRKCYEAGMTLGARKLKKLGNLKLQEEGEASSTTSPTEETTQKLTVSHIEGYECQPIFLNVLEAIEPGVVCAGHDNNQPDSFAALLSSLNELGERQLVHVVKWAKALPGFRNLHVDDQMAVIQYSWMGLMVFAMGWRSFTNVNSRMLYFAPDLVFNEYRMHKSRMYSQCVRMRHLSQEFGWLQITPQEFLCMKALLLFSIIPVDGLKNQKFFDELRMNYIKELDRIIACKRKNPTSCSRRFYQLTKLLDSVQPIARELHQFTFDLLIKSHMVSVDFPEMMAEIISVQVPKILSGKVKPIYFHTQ
Description: The compounds used according to the present invention preferably have a binding affinity to the androgen receptor (AR) higher than DHT; more preferably the binding affinity is high by having affinity specific to AR in a range of IC50≤500 nM, preferably IC50≤100 nM and more preferably IC50≤50 nM, wherein IC50 is defined as the concentration of the compound required to reduce specific binding of a reference compound, 5α-dihydrotestosterone (DHT), by 50%. The IC50-values can be determined by known methods using radioactively labelled DHT as reference compound, for example by a standard dextran-coated charcoal adsorption method as described by Raynaud et al., J. Steroid Biochem. 6, 615-622 (1975), using 1 nM reference concentrations of radiolabeled [^3H]-DHT, or by similar IC50 determination methods described in the literature. Because the concentration of AR in the target cell is very low, typically in the nanomolar range approximately, differences in binding constants to the order contemplated in the present invention are significant.

[2] = topical treatment over predilection areas of cellulite, within four weeks

Compound | reduction of prostate cancers in the treatment arm (prostate cancer) [%] | growth of breast cancer cells in culture (breast cancer cells) | proliferation of LNCaP variant [1] | 5α-reduction (5α-reductase) | aromatization (aromatase) | androgenic effect on the skin (hair growth, pimples) (skin; after application to the skin) | concentration of collagen fibres in the skin (skin; topical application to the skin) | topical formulation compared with 4-OHA (skin; topical formulation, collagen content of the skin) | adipocytes entrapped in the mesh of collagen fibres (skin; [2]) | solidification of the skin (skin; [2]) | binding affinity to the AR relative to DHT (androgen receptor (AR))
CC(C)(C)NC(=O)[C@H]1CC[C@H]2[C@@H]3CC[C@H]4NC(=O)C=C[C@]4(C)[C@H]3CC[C@]12C [finasteride] | 25 | – | – | – | – | – | – | – | – | – | –
C[C@]12CCC(=O)C[C@@H]1CC[C@@H]1[C@@H]2CC[C@]2(C)[C@@H](O)CC[C@@H]12 [DHT, dihydrotestosterone, reference compound] | – | able to abolish the growth | inhibits the proliferation | – | – | – | – | – | – | – | –
C[C@]12CC[C@H]3[C@@H](CCC4=C(O)C(=O)CC[C@@]43C)[C@@H]1CC[C@@H]2O [4-OHT, 4,17β-dihydroxyandrost-4-en-3-one] | – | even more effective | – | escapes aromatization or 5α-reduction | escapes aromatization | no androgenic effect whatsoever could be observed | anabolically increases the concentration of collagen fibres; also recorded: drastic augmentation of collagen fibres | superior than 4-OHA | marked diminution and shrinkage of the adipocytes | considerable solidification of the skin | higher affinity to the AR than DHT

Reference: patent publication US10265328B2, “C-19 steroids for specific therapeutic uses” (Procima GmbH, priority 2007, dated 2019)
